From ChEMBL document CHEMBL4616586, “Design, synthesis and biological evaluation of substituted flavones and aurones as potential anti-influenza agents” (Bioorg Med Chem, 2020)
Active and inactive are the calls of the source. The rule behind the calls is not given here.

Assays:
[1] = Cytotoxicity against dog MDCK cells assessed as reduction in cell viability by MTT assay; format: cell-based, Canis lupus familiaris
[2] = tested on: Influenza A virus; assay: Antiviral activity against Influenza A virus (H1N1) infected in dog MDCK cells assessed as reduction in log2HA titer incubated for 3 to 4 days by CPE assay; format: functional, organism-based
[3] = molecular target: Neuraminidase (Influenza A virus (A/Puerto Rico/8/1934(H1N1)), UniProt P03468); assay: Inhibition of Influenza A virus (H1N1) neuraminidase
Sequence of Neuraminidase (Influenza A virus (A/Puerto Rico/8/1934(H1N1)), UniProt P03468) (P03468 whole entry): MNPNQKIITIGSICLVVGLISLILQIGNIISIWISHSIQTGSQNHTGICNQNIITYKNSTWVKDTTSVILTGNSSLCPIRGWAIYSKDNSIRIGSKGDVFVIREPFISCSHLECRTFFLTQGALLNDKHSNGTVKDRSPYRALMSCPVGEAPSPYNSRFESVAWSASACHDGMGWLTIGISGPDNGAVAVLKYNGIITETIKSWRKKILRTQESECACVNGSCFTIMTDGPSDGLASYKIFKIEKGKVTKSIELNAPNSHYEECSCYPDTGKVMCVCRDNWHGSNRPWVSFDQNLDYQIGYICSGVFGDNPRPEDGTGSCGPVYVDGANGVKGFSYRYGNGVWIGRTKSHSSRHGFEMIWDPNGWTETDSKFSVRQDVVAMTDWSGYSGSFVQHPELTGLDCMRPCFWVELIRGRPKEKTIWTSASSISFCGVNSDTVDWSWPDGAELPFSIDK

[4] = Selectivity index, ratio of CC50 for dog MDCK cells to EC50 for Influenza A virus (H1N1) infected in dog MDCK cells; format: toxicity, cell-based; settings: read-out: Ratio CC50/EC50
[5] = molecular target: Neuraminidase (Influenza A virus (A/Puerto Rico/8/1934(H1N1))) (UniProt P03468); assay: Non-competitive inhibition of Influenza A virus (H1N1) neuraminidase by Lineweaver-Burk plot analysis
Sequence of Neuraminidase (Influenza A virus (A/Puerto Rico/8/1934(H1N1))) (P03468 whole entry): as above

Structure (SMILES)	CC50 [1]	EC50 [2]	IC50 [3]	selectivity ratio [4]	inhibition [5]
COc1ccccc1-c1cc(=O)c2ccccc2o1	171 µM				
O=C1/C(=C/c2ccc([N+](=O)[O-])cc2)Oc2ccccc21	213 µM	0.0463 µM	41 µM	4600	
O=c1cc(-c2cccc([N+](=O)[O-])c2)oc2ccccc12	269 µM	0.0141 µM	15.4 µM	19100	
O=c1cc(-c2cccc(Cl)c2)oc2ccccc12	174 µM	0.0477 µM	32.6 µM	3650	
COc1ccc(/C=C2\Oc3ccccc3C2=O)cc1 [4'-METHOXY-AURONE]	169 µM	0.0353 µM	37.5 µM	4800	Active
O=C1/C(=C/c2ccccc2Cl)Oc2ccccc21	339 µM				
O=c1cc(-c2ccc(Cl)cc2)oc2ccccc12	115 µM	0.0359 µM	27.7 µM	3210	
O=c1cc(-c2ccccc2Cl)oc2ccccc12	388 µM				
COc1ccc(-c2cc(=O)c3ccccc3o2)cc1 [4'-METHOXYFLAVONE]	192 µM	0.00936 µM	8.74 µM	20500	Active
COc1ccccc1/C=C1\Oc2ccccc2C1=O [(Z)-2'-METHOXYAURONE]	273 µM				
O=C1/C(=C/c2cccc([N+](=O)[O-])c2)Oc2ccccc21	396 µM				
O=c1c(O)c(-c2ccc(O)c(O)c2)oc2cc(O)cc(O)c12 [QUERCETIN]		0.0845 µM	7.75 µM	3010	Active
O=C1/C(=C/c2ccc(Cl)cc2)Oc2ccccc21	272 µM	0.0514 µM	45.4 µM	5300	
O=C1/C(=C/c2cccc(Cl)c2)Oc2ccccc21	26.9 µM				
COc1cccc(/C=C2\Oc3ccccc3C2=O)c1 [3'-METHOXY-AURONE]	7.81 µM				
COc1cccc(-c2cc(=O)c3ccccc3o2)c1	263 µM	0.0126 µM	10.8 µM	21000	
CCC(CC)O[C@@H]1C=C(C(=O)O)C[C@H](N)[C@H]1NC(C)=O [OSELTAMIVIR CARBOXYLATE]	713 µM	0.0071 µM			
